{"source": "patent US8987266B2", "about": "“EGFR mutations” (Genentech, Inc., priority 2004, dated 2015)", "key": {"HN5 xenografts": {"tested_on": "HN5 xenografts", "conditions": "nude mice; cited from earlier work"}, "A431 xenografts": {"tested_on": "A431 xenografts", "conditions": "nude mice; cited from earlier work"}, "H1975 tumor cell line": {"tested_on": "H1975 tumor cell line", "assay": "treatment of H1975 tumor cell line", "assay_type": "cell-based", "conditions": "H1975, EGFR T790M in combination with L858R"}, "[1]": {"conditions": "combined with paclitaxel, cisplatin, gemcitabine, and doxorubicin; cited from earlier work"}}, "data": [{"compound": "C#Cc1cccc(Nc2ncnc3cc(OCCOC)c(OCCOC)cc23)c1", "note": "[erlotinib]", "values": [{"measurement": "growth inhibition of HN5 xenografts", "setting": "HN5 xenografts", "value": "marked growth inhibition"}, {"measurement": "growth inhibition of A431 xenografts", "setting": "A431 xenografts", "value": "marked growth inhibition"}, {"measurement": "response of tumor cell line to treatment", "setting": "H1975 tumor cell line", "value": "exhibited resistance"}, {"measurement": "interaction with chemotherapy agents", "setting": "[1]", "value": "additive interaction"}]}]}
